# Laboratory results published in patent publication US9115093B2, “Substituted bicyclic dihydropyrimidinones and their use as inhibitors of neutrophil elastase activity” (Boehringer Ingelheim International GmbH, priority 2013, dated 2015).
# Target: T1, neutrophil elastase (Homo sapiens, UniProt P08246)
# T1 sequence (P08246 30-247 limits assumed): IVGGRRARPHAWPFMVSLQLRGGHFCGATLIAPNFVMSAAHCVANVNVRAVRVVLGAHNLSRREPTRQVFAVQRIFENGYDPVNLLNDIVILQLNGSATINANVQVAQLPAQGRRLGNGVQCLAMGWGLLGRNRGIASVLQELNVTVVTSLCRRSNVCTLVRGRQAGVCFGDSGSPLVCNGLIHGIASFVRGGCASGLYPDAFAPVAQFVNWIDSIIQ
# Test: Human Neutrophil Elastase Assay
# Format: biochemical
# Design: purchased Calbiochem 324681
# Details: substrate MeOSuc-Ala-Ala-Pro-Val-AMC, pH 7.5, room temperature
# Procedure: Human Neutrophil Elastase Assay
# Materials: Human neutrophil elastase was purchased from Calbiochem (Cat.No.: 324681) and the elastase substrate MeOSuc-Ala-Ala-Pro-Val-AMC from Bachem (Cat.No.: I-1270). All other materials were of the highest grade commercially available.
# The following buffers were used: Compound buffer: 100 mM Tris, 500 mM NaCl, adjusted to pH 7.5; Assay buffer: 100 mM Tris, 500 mM NaCl, adjusted to pH 7.5, containing 0.01% BSA.
# Assay conditions: Test compounds were prediluted in DMSO and subsequently in compound buffer (5% DMSO final). 5 μL of these compound dilutions were mixed with 10 μl Neutrophil elastase (9 ng/ml in assay buffer) in a black 384 well OptiPlate (Perkin Elmer, Cat No.: 6007270) and incubated for 15 min at room temperature. Subsequently 10 μL substrate solution in assay buffer were added (250 nM final concentration) and the plates were incubated for 60 min at room temperature. After inactivation of the enzyme, fluorescence intensities were measured at 380 nm excitation and 460 nm emission wavelengths.
# Each plate contains wells with a high value control (DMSO+enzyme+substrate) and wells with a low value control (DMSO+inactivated enzyme+substrate). IC50 values were estimated using a sigmoidal concentration response curve with variable slope. Means of low values were taken as 0%, means of high values as 100%.
row,Compound,IC50 [nM]
1,"COc1cc(C2CC(=O)C3=C(C2)N(c2cccc(C(F)(F)F)c2)C(=O)NC3c2ccc(C#N)cc2)cc(OC)c1OC (stereo not shown) [Example 8, 4-(2,5-Dioxo-1-(3-(trifluoromethyl)phenyl)-7-(3,4,5-trimethoxyphenyl)-1,2,3,4,5,6,7,8-octahydroquinazolin-4-yl)benzonitrile]",26.3
2,N#Cc1ccc(C2C3=C(CCCC3=O)N(c3cccc(C(F)(F)F)c3)C(=O)N2CC2CCOCC2)cc1 (stereo not shown) [Example 26],11.8
3,CC(C#N)NC(=O)N1C(=O)N(c2cccc(C(F)(F)F)c2)C2=C(C(=O)CCC2)[C@H]1c1ccc(C#N)cc1S(C)(=O)=O (stereo partly shown) [Example 75.4],< 1
4,"Cn1ccc(CN2C(=O)N(c3cccc(C(F)(F)F)c3)C3=C(C(=O)CCC3)C2c2ccc(C#N)cc2)cc1=O (stereo not shown) [Example 27, 4-(1-(3-(Trifluoromethyl)phenyl)-3-((1-methyl-2-oxo-1,2-dihydropyridin-4-yl)methyl)-2,5-dioxo-1,2,3,4,5,6,7,8-octahydroquinazolin-4-yl)benzonitrile]",10.8
5,"N#Cc1ccc(C2NC(=O)N(c3cc(C(F)(F)F)ccn3)C3=C2C(=O)CCC3)cc1 (stereo not shown) [Example 13, 4-(2,5-Dioxo-1-(4-(trifluoromethyl)pyridin-2-yl)-1,2,3,4,5,6,7,8-octahydroquinazolin-4-yl)benzonitrile]",110
6,CS(=O)(=O)c1cc(C#N)ccc1[C@@H]1C2=C(CCCC2=O)N(c2cccc(C(F)(F)F)c2)C(=O)N1C(=O)NC1COC1 [Example 75.5],< 1
7,"CNC(=O)N1C(=O)N(c2cccc(C(F)(F)F)c2)C2=C(C(=O)CCC2)C1c1ccc(C#N)cc1S(C)(=O)=O (stereo not shown) [Example 47, 4-(4-Cyano-2-(methylsulfonyl)phenyl)-N-methyl-2,5-dioxo-1-(3-(trifluoromethyl)-phenyl)-1,2,5,6,7,8-hexahydroquinazoline-3(4H)-carboxamide]",< 1
8,CS(=O)(=O)c1cc(C#N)ccc1[C@@H]1C2=C(CCCC2=O)N(c2cccc(C(F)(F)F)c2)C(=O)N1C(=O)NC1CC1 [Example 75.2],< 1
9,CS(=O)(=O)c1cc(C#N)ccc1[C@@H]1C2=C(CCCC2=O)N(c2cccc(C(F)(F)F)c2)C(=O)N1C(=O)NC1CCOC1 (stereo partly shown) [Example 75.10],< 1
10,"N#Cc1ccc(C2C3=C(CCCC3=O)N(c3cccc(C(F)(F)F)c3)C(=O)N2Cc2ccc(C(=O)O)o2)cc1 (stereo not shown) [Example 29, 5-((4-(4-Cyanophenyl)-2,5-dioxo-1-(3-(trifluoromethyl)phenyl)-1,2,5,6,7,8-hexahydroquinazolin-3(4H)-yl)methyl)furan-2-carboxylic acid]",13.7
11,"Cc1cc(C#N)ccc1C1NC(=O)N(c2cccc(C(F)(F)F)c2)C2=C1C(=O)CCC2 (stereo not shown) [Example 55, 4-(2,5-Dioxo-1-(3-(trifluoromethyl)phenyl)-1,2,3,4,5,6,7,8-octahydroquinazolin-4-yl)-3-methylbenzonitrile]",18.7
12,"CS(=O)(=O)N1C(=O)N(c2cccc(C(F)(F)F)c2)C2=C(C(=O)CCC2)C1c1ccc(C#N)cc1 (stereo not shown) [Example 43, 4-(3-(Methylsulfonyl)-2,5-dioxo-1-(3-(trifluoromethyl)phenyl)-1,2,3,4,5,6,7,8-octahydroquinazolin-4-yl)benzonitrile]",4
13,"CNC(=O)N1C(=O)N(c2cccc(C(F)(F)F)c2)C2=C(C(=O)CCC2)C1c1ccc(C#N)cc1C (stereo not shown) [Example 73, 4-(4-Cyano-2-methylphenyl)-N-methyl-2,5-dioxo-1-(3-(trifluoromethyl)phenyl)-1,2,5,6,7,8-hexahydroquinazoline-3(4H)-carboxamide]",< 1
14,"CNC(=O)N1C(=O)N(c2cccc(C(F)F)c2)C2=C(C(=O)CCC2)C1c1ccc(C#N)cc1S(C)(=O)=O (stereo not shown) [Example 50, 4-(4-Cyano-2-(methylsulfonyl)phenyl)-1-(3-(difluoromethyl)phenyl)-N-methyl-2,5-dioxo-1,2,5,6,7,8-hexahydroquinazoline-3(4H)-carboxamide]",< 1
15,"CCNC(=O)N1C(=O)N(c2cccc(C(F)(F)F)c2)C2=C(C(=O)CCC2)C1c1ccc(C#N)cc1C (stereo not shown) [Example 74, 4-(4-Cyano-2-methylphenyl)-N-ethyl-2,5-dioxo-1-(3-(trifluoromethyl)phenyl)-1,2,5,6,7,8-hexahydroquinazoline-3(4H)-carboxamide]",< 1
16,"COCCCN1C(=O)N(c2cccc(C(F)(F)F)c2)C2=C(C(=O)CCC2)C1c1ccc(C#N)cc1 (stereo not shown) [Example 24, 4-(1-(3-(Trifluoromethyl)phenyl)-3-(3-methoxypropyl)-2,5-dioxo-1,2,3,4,5,6,7,8-octahydroquinazolin-4-yl)benzonitrile]",6.4
17,"COC(=O)c1cc(S(=O)(=O)N2C(=O)N(c3cccc(C(F)(F)F)c3)C3=C(C(=O)CCC3)C2c2ccc(C#N)cc2)cs1 (stereo not shown) [Example 44, Methyl 4-(4-(4-Cyanophenylcyanophenyl)-2,5-dioxo-1-(3-(trifluoromethyl)phenyl)-1,2,5,6,7,8-hexahydroquinazolin-3(4H)-ylsulfonyl)thiophene-2-carboxylate]",22

# Next, values leading:
row,IC50 [nM],Compound
1,2.3,CS(=O)(=O)C1CCN(C(=O)CN2C(=O)N(c3cccc(C(F)(F)F)c3)C3=C(C(=O)CCC3)C2c2ccc(C#N)cc2)C1 (stereo not shown) [Example 36.70]
2,< 1,CS(=O)(=O)c1ccc(CNC(=O)N2C(=O)N(c3cccc(C(F)(F)F)c3)C3=C(C(=O)CCC3)C2c2ccc(C#N)cc2)nc1 (stereo not shown) [Example 39.20]
3,2.4,CC(C)(CO)NC(=O)N1C(=O)N(c2cccc(C(F)(F)F)c2)C2=C(C(=O)CCC2)C1c1ccc(C#N)cc1 (stereo not shown) [Example 70.10]
4,< 1,N#Cc1ccc(C2C3=C(CCCC3=O)N(c3cccc(C(F)(F)F)c3)C(=O)N2C(=O)NCCCO)cc1 (stereo not shown) [Example 39.6]
5,8,N#Cc1ccc(C2C3=C(CCCC3=O)N(c3cccc(C(F)(F)F)c3)C(=O)N2CC(=O)N2CCN3CCCC3C2)cc1 (stereo not shown) [Example 36.56]
6,10,N#Cc1ccc(C2C3=C(CCCC3=O)N(c3cccc(C(F)(F)F)c3)C(=O)N2CC(=O)NCCN2CCCC2=O)cc1 (stereo not shown) [Example 36.58]
7,11.4,N#Cc1ccc(C2C3=C(CCCC3=O)N(c3cccc(C(F)(F)F)c3)C(=O)N2CC(=O)N[C@H]2CCNC2=O)cc1 (stereo partly shown) [Example 36.20]
8,6.6,COCCN(C)C(=O)CN1C(=O)N(c2cccc(C(F)(F)F)c2)C2=C(C(=O)CCC2)C1c1ccc(C#N)cc1 (stereo not shown) [Example 36.12]
9,9.5,C[S+]([O-])CCNC(=O)CN1C(=O)N(c2cccc(C(F)(F)F)c2)C2=C(C(=O)CCC2)C1c1ccc(C#N)cc1 (stereo not shown) [Example 36.29]
10,13.8,CN(Cc1ccccc1)C(=O)CN1C(=O)N(c2cccc(C(F)(F)F)c2)C2=C(C(=O)CCC2)C1c1ccc(C#N)cc1 (stereo not shown) [Example 36.47]
11,1.2,N#Cc1ccc(C2C3=C(CCCC3=O)N(c3cccc(C(F)(F)F)c3)C(=O)N2CC(=O)N2CC3CC3C2)cc1 (stereo not shown) [Example 36.6]
12,5.6,N#Cc1ccc(C2C3=C(CCCC3=O)N(c3cccc(C(F)(F)F)c3)C(=O)N2CC(=O)N2CCc3cnccc3C2)cc1 (stereo not shown) [Example 36.64]
13,6.4,CNC(=O)CN1C(=O)N(c2cccc(C(F)(F)F)c2)C2=C(C(=O)CCC2)C1c1ccc(C#N)cc1 (stereo not shown) [Example 36.1]
14,4.6,"N#Cc1ccc([C@@H]2C3=C(CCCC3=O)N(c3cccc(C(F)(F)F)c3)C(=O)N2CC(=O)O)cc1 [Example 32A, (R)-2-(4-(4-Cyanophenyl)-2,5-dioxo-1-(3-(trifluoromethyl)phenyl)-1,2,5,6,7,8-hexahydroquinazolin-3(4H)-yl)acetic acid]"
15,12.1,CN(C)CCCN(C)C(=O)CN1C(=O)N(c2cccc(C(F)(F)F)c2)C2=C(C(=O)CCC2)C1c1ccc(C#N)cc1 (stereo not shown) [Example 36.43]
16,5.1,CC(C)CS(=O)(=O)N1C(=O)N(c2cccc(C(F)(F)F)c2)C2=C(C(=O)CCC2)C1c1ccc(C#N)cc1 (stereo not shown) [Example 44.3]
17,3,CCCS(=O)(=O)N1C(=O)N(c2cccc(C(F)(F)F)c2)C2=C(C(=O)CCC2)C1c1ccc(C#N)cc1 (stereo not shown) [Example 44.2]
18,1.2,N#Cc1ccc(C2C3=C(CCCC3=O)N(c3cccc(C(F)(F)F)c3)C(=O)N2CC(=O)N2Cc3cccnc3C2)cc1 (stereo not shown) [Example 36.46]
19,7.4,CN(CC1(C)COC1)C(=O)CN1C(=O)N(c2cccc(C(F)(F)F)c2)C2=C(C(=O)CCC2)C1c1ccc(C#N)cc1 (stereo not shown) [Example 36.41]
20,1.4,N#Cc1ccc(C2C3=C(CCCC3=O)N(c3cccc(C(F)(F)F)c3)C(=O)N2C(=O)NCC2(O)CC2)cc1 (stereo not shown) [Example 70.7]
21,20,CN(C)CCNC(=O)CN1C(=O)N(c2cccc(C(F)(F)F)c2)C2=C(C(=O)CCC2)C1c1ccc(C#N)cc1 (stereo not shown) [Example 36.10]
22,< 1,CS(=O)(=O)CCNC(=O)N1C(=O)N(c2cccc(C(F)(F)F)c2)C2=C(C(=O)CCC2)C1c1ccc(C#N)cc1S(C)(=O)=O (stereo not shown) [Example 47.4]
23,20.5,COCCCNC(=O)CN1C(=O)N(c2cccc(C(F)(F)F)c2)C2=C(C(=O)CCC2)C1c1ccc(C#N)cc1 (stereo not shown) [Example 36.13]
